Reference: patent US20120004228A1, “Bis Aromatic Compounds for Use as LTC4 Synthase Inhibitors” (BIOLIPOX AB, priority 2009, published 2012)

The molecules below were run against T1, Recombinant human LTC4 synthase (Homo sapiens, UniProt Q16873) (assay: In vitro LTC4 synthase assay (LTA4 to LTC4, HTRF detection)).
T1 construct: made in house; host or cells: Pichia pastoris ('Piccia pastoralis' [sic])
T1 sequence (Q16873 1-150): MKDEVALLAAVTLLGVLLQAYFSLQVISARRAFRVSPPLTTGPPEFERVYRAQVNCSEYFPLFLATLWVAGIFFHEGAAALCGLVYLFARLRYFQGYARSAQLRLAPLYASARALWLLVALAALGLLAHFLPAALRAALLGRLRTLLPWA
Assay type: biochemical

SMILES | IC50
COc1ccc(Nc2cc(C(=O)O)cc(C(=O)c3ccc(N(C)c4ccc(Cl)cc4)cc3)c2)cc1OC [10:7, 3-{4-[(4-Chlorophenyl)(methyl)amino]benzoyl}-5-(3,4-dimethoxyphenyl-amino)benzoic acid] | 483 nM
CN(c1ccc(Cl)cc1)c1ccc(C(=O)c2cc(Nc3ccccc3)cc(C(=O)O)c2)cc1 [10:8, 3-{4-[(4-Chlorophenyl)(methyl)amino]benzoyl}-5-phenylamino-benzoic acid] | 80 nM
CN(c1ccc(Cl)cc1)c1ccc(C(=O)c2cc(Nc3ccccc3F)cc(C(=O)O)c2)cc1 [10:9, 3-{4-[(4-Chlorophenyl)(methyl)amino]benzoyl}-5-(2-fluorophenylamino)-benzoic acid] | 162 nM
CN(c1ccc(Cl)cc1)c1ccc(C(=O)c2cc(NCc3ccccc3)cc(C(=O)O)c2)cc1 [10:10, 3-Benzylamino-5-{4-[(4-chlorophenyl)(methyl)amino]benzoyl}benzoic acid] | 360 nM
CN(c1ccc(Cl)cc1)c1ccc(C(=O)c2cc(Nc3ccc(C(F)(F)F)cc3Cl)cc(C(=O)O)c2)cc1 [10:11, 3-[2-Chloro-4-(trifluoromethyl)phenylamino]-5-{4-[(4-chlorophenyl)(methyl)-amino]benzoyl}benzoic acid] | 125 nM
CN(c1ccc(Cl)cc1)c1ccc(C(=O)c2cc(Nc3ccccc3OC(F)F)cc(C(=O)O)c2)cc1 [10:12, 3-{4-[(4-Chlorophenyl)(methyl)amino]benzoyl}-5-(2-difluoromethoxyphenyl-amino)benzoic acid] | 110 nM
CN(c1ccc(Cl)cc1)c1ccc(C(=O)c2cc(C(=O)O)cc(N(C)c3ccc(Cl)cc3Cl)c2)cc1 [10:13, 3-{4-[(4-Chlorophenyl)(methyl)amino]benzoyl}-5-[(2,4-dichlorophenyl)-(methyl)amino]benzoic acid] | 40 nM
CN(c1ccc(Cl)cc1)c1ccc(C(=O)c2cc(NCc3ccc(Cl)cc3Cl)cc(C(=O)O)c2)cc1 [10:14, 3-{4-[(4-Chlorophenyl)(methyl)amino]benzoyl}-5-(2,4-dichlorobenzylamino)-benzoic acid] | 75 nM
COc1ccccc1Nc1cc(C(=O)O)cc(C(=O)c2ccc(N(C)c3ccc(Cl)cc3)cc2)c1 [10:15, 3-{4-[(4-Chlorophenyl)(methyl)amino]benzoyl}-5-(2-methoxyphenylamino)-benzoic acid] | 360 nM
Cc1ccccc1CNc1cc(C(=O)O)cc(C(=O)c2ccc(N(C)c3ccc(Cl)cc3)cc2)c1 [10:16, 3-{4-[(4-Chlorophenyl)(methyl)amino]benzoyl}-5-(2-methylbenzylamino)-benzoic acid] | 284 nM
CN(c1ccc(Cl)cc1)c1ccc(C(=O)c2cc(Nc3ccc(C(F)(F)F)cc3)cc(C(=O)O)c2)cc1 [10:17, 3-{4-[(4-Chlorophenyl)(methyl)amino]benzoyl}-5-(4-trifluoromethylphenyl-amino)benzoic acid] | 159 nM
CN(c1ccc(Cl)cc1)c1ccc(C(=O)c2cc(Nc3ccc4c(c3)OC(F)(F)O4)cc(C(=O)O)c2)cc1 [10:18, 3-{4-[(4-Chlorophenyl)(methyl)amino]benzoyl}-5-[3,4-(difluoromethylene-dioxy)phenylamino]benzoic acid] | 105 nM
CCN(c1ccccc1)c1cc(C(=O)O)cc(C(=O)c2ccc(N(C)c3ccc(Cl)cc3)cc2)c1 [10:19, 3-{4-[(4-Chlorophenyl)(methyl)amino]benzoyl}-5-[ethyl(phenyl)amino]benzoic acid] | 33 nM
CN(c1ccc(Cl)cc1)c1ccc(C(=O)c2cc(NCc3ccc(Cl)cc3)cc(C(=O)O)c2)cc1 [10:20, 3-(4-Chlorobenzylamino)-5-{4-[(4-chlorophenyl)(methyl)amino]benzoyl}-benzoic acid] | 118 nM
CN(c1ccc(Cl)cc1)c1ccc(C(=O)c2cc(NC3CCSCC3)cc(C(=O)O)c2)cc1 [10:21] | 143 nM
CN(c1ccc(Cl)cc1)c1ccc(C(=O)c2cc(C(=O)O)cc(N(C)C3CCOCC3)c2)cc1 [10:22, 3-{4-[(4-Chlorophenyl)(methyl)amino]benzoyl}-5-[methyl(4-tetrahydropyranyl)-amino]benzoic acid] | 252 nM
CN(c1ccc(Cl)cc1)c1ccc(C(=O)c2cc(C(=O)O)cc(N(C)c3ccccc3F)c2)cc1 [10:24, 3-{4-[(4-Chlorophenyl)(methyl)amino]benzoyl}-5-[(2-fluorophenyl)(methyl)-amino]benzoic acid] | 40 nM
COCCN(c1cc(C(=O)O)cc(C(=O)c2ccc(N(C)c3ccc(Cl)cc3)cc2)c1)c1ccccc1F [10:25, 3-{4-[(4-Chlorophenyl)(methyl)amino]benzoyl}-5-[(2-fluorophenyl)(2-methoxy-ethyl)amino]benzoic acid] | 76 nM

Continued, values first:

IC50 | SMILES
74 nM | COCCN(c1ccccc1)c1cc(C(=O)O)cc(C(=O)c2ccc(N(C)c3ccc(Cl)cc3)cc2)c1 [10:26, 3-{4-[(4-Chlorophenyl)(methyl)amino]benzoyl}-5-[(2-methoxyethyl)(phenyl)-amino]benzoic acid]
133 nM | CN(c1ccc(Cl)cc1)c1ccc(C(=O)c2cc(C(=O)O)cc(N(CC3(C)COC3)c3ccccc3)c2)cc1 [10:27, 3-{4-[(4-Chlorophenyl)(methyl)amino]benzoyl}-5-{[(3-methyloxetan-3-yl)-methyl](phenyl)amino}benzoic acid]
68 nM | CN(c1ccc(Cl)cc1)c1ccc(C(=O)c2cc(C(=O)O)cc(N(CC3(C)COC3)c3ccccc3F)c2)cc1 [10:28, 3-{4-[(4-Chlorophenyl)(methyl)amino]benzoyl}-5-{(2-fluorophenyl)[(3-methyl-oxetan-3-yl)methyl]amino}benzoic acid]
40 nM | CN(c1ccc(Cl)cc1)c1ccc(C(=O)c2cc(C(=O)O)cc(N(CC3OCCO3)c3ccccc3)c2)cc1 [10:29, 3-{[(1,3-Dioxolan-2-yl)methyl](phenyl)amino}-5-{4-[(4-chlorophenyl)(methyl)-amino]benzoyl}benzoic acid]
147 nM | CN(c1ccc(Cl)cc1)c1ccc(C(=O)c2cc(C(=O)O)cc(N(CC3CCC3)c3ccccc3)c2)cc1 [10:30, 3-{4-[(4-Chlorophenyl)(methyl)amino]benzoyl}-5-[(cyclobutylmethyl)(phenyl)-amino]benzoic acid]
662 nM | C=CCCC(=O)N(c1ccccc1)c1cc(C(=O)O)cc(C(=O)c2ccc(N(C)c3ccc(Cl)cc3)cc2)c1 [10:32, 3-{4-[(4-Chlorophenyl)(methyl)amino]benzoyl}-5-[(N-phenyl)pent-4-enamido]-benzoic acid]
757 nM | CCC(CC)C(=O)N(c1ccccc1)c1cc(C(=O)O)cc(C(=O)c2ccc(N(C)c3ccc(Cl)cc3)cc2)c1 [10:33, 3-{4-[(4-Chlorophenyl)(methyl)amino]benzoyl}-5-(2-ethyl-N-phenylbutan-amido)benzoic acid]
807 nM | CN(c1ccc(Cl)cc1)c1ccc(C(=O)c2cc(C(=O)O)cc(N(C(=O)C3CCOCC3)c3ccccc3)c2)cc1 [10:34, 3-{4-[(4-Chlorophenyl)(methyl)amino]benzoyl}-5-[(N-phenyl)-4-tetrahydro-pyrancarboxamido]benzoic acid]
176 nM | CC(C)CN(c1ccccc1)c1cc(C(=O)O)cc(C(=O)c2ccc(N(C)c3ccc(Cl)cc3)cc2)c1 [10:35, 3-{4-[(4-Chlorophenyl)(methyl)amino]benzoyl}-5-[isobutyl(phenyl)amino]-benzoic acid]
25 nM | CN(c1ccc(Cl)cc1)c1ccc(C(=O)c2cc(C(=O)O)cc(N(CC3CCCCO3)c3ccccc3)c2)cc1 (stereo not shown) [10:36, 3-{4-[(4-Chlorophenyl)(methyl)amino]benzoyl}-5-{pheny[(tetrahydropyran-2-yl)methyl]amino}benzoic acid]
252 nM | CN(c1ccc(Cl)cc1)c1ccc(C(=O)c2cc(C(=O)O)cc(N(CCCC(F)(F)F)c3ccccc3)c2)cc1 [10:37, 3-{4-[(4-Chlorophenyl)(methyl)amino]benzoyl}-5-[phenyl(4,4,4-trifluorobutyl)-amino]benzoic acid]
192 nM | CN(c1ccc(Cl)cc1)c1ccc(C(=O)c2cc(C(=O)O)cc(N(C(=O)CC3CCCC3)c3ccccc3)c2)cc1 [10:39, 3-{4-[(4-Chlorophenyl)(methyl)amino]benzoyl}-5-[2-cyclopentyl-(N-phenyl)-acetamido]benzoic acid]
462 nM | CN(c1ccc(Cl)cc1)c1ccc(C(=O)c2cc(OCc3ccccc3)cc(C(=O)O)c2)nc1 [11:2, 3-Benzyloxy-5-{5-[(4-chlorophenyl)(methyl)amino]picolinoyl}benzoic acid]
250 nM | COc1cccc(COc2cc(C(=O)O)cc(C(=O)c3ccc(N(C)c4ccc(Cl)cc4)cn3)c2)c1 [11:3, 3-{5-[(4-Chlorophenyl)(methyl)amino]picolinoyl}-5-(3-methoxybenzyloxy)-benzoic acid]
454 nM | CN(c1ccc(Cl)cc1)c1ccc(C(=O)c2cc(OCc3cccc(F)c3)cc(C(=O)O)c2)nc1 [11:4, 3-{5-[(4-Chlorophenyl)(methyl)amino]picolinoyl}-5-(3-fluorobenzyloxy)benzoic acid]
584 nM | CN(c1ccc(Cl)cc1)c1ccc(C(=O)c2cc(OCc3ccc4c(c3)OCO4)cc(C(=O)O)c2)nc1 [11:5, 3-{5-[(4-Chlorophenyl)(methyl)amino]picolinoyl}-5-(3,4-methylenedioxy-benzyloxy)benzoic acid]
445 nM | CN(c1ccc(Cl)cc1)c1ccc(C(=O)c2cc(C(=O)O)cc(-c3ccc(Cl)cc3)c2)nc1 [12:2, 4′-Chloro-5-{5-[(4-chlorophenyl)(methyl)amino]picolinoyl}biphenyl-3-carboxylic acid]
234 nM | CN(c1ccc(Cl)cc1)c1ccc(C(=O)c2cc(C(=O)O)cc(-c3ccccc3Cl)c2)nc1 [12:3, 2′-Chloro-5-{5-[(4-chlorophenyl)(methyl)amino]picolinoyl}biphenyl-3-carboxylic acid]
211 nM | CN(c1ccc(Cl)cc1)c1ccc(C(=O)c2cc(Sc3ccccc3)cc(C(=O)O)c2)nc1 [19:4, 3-{5-[(4-Chlorophenyl)(methyl)amino]picolinoyl}-5-phenylsulfanylbenzoic acid]
